This is an account of results in patent publication US20110081296A1, “SYSTEMS AND METHODS FOR IDENTIFICATION OF CILIOPATHY THERAPEUTICS” (RUTGERS, THE STATE UNIVERSITY OF NEW JERSEY, priority 2009, published 2011).

Each structure is given as a SMILES string.

Common to all, as to format: cell-based, Caenorhabditis elegans
The subject of one assay is WT sperm. Kind of assay: in vitro sperm crawling on glass slides after chemical activation, wild type. The settings on record: n=7. The procedure: (§1) Epifluorescence and Nomarski analyses were performed on a Zeiss Axioplan2 imaging system equipped with 10×, 63× (NA 1.4), 100× (NA 1.4) objectives and a Photometrics Cascade 512B CCD camera using Metamorph software. 3D deconvolution of Z-stacks of epifluorescent image were performed by AutoQuantX program (MediaCybernetics). Confocal images were collected using a 510 LSM META ZEISS. Optical sections were collected between 0.4-1.0 μm and projected as Z-series that were stored as TIFF files and manipulated using Adobe PhotoShopTM. Worms were anesthetized with 1 mM levamisole, mounted on agar pads and maintained at room temperature. For time-lapse microscopy of sperm motility, Nomarski images were taken every 15 seconds for up to 15 minutes. Neuronal images shown in figures are projected epifluorescent Z-stacks af[…] deconvolution except for FIGS. 2C and 2G, which are projected Z-stacks of confocal sections. For electron microscopy, sperm were prepared as known in the art, except that the samples were embedded in LX112 (Ladd Research Industries Inc., Burlington, Va.). To isolate spermatids, virgin L4 males were isolated for 2-3 days in 20 degrees and cut with a 25g needle on a glass slide in Sperm Media (SM) pH 7.9 with 10 mM Dextrose. For in vitro activation, 20 ug/ml of Pronase or 100 nM monensin (for in vitro sperm crawling experiments) was added to SM as described in [21]. […]

The next assay relates to my15 sperm. Kind of assay: in vitro sperm crawling on glass slides after chemical activation, cil-1(my15) mutant. The settings on record: isolated my15 sperm. On the procedure:
as §1

Another assay concerns WT spermatids. Kind of assay: in vitro sperm activation of isolated male spermatids, wild type. The settings on record: of 1, 10, 100 nM tested. On the procedure:
(§2) To isolate spermatids, virgin L4 males were isolated for 2-3 days in 20 degrees and cut with a 25g needle on a glass slide in Sperm Media (SM) pH 7.9 with 10 mM Dextrose. For in vitro activation, 20 ug/ml of Pronase or 100 nM monensin (for in vitro sperm crawling experiments) was added to SM as described in [21]. For wortmannin treatment, a 100× wortmannin stock solution in DMSO was added to reach the final concentration of 100 nM into SM. During sperm activation, a round spermatid develops into a motile spermatozoon with a pseudopod (FIG. 16A). This process can be mimicked in vitro by chemical activators such as the ionophore monensin or Pronase. Within 15 min of Pronase application, the majority of WT male spermatids (63.4%, n=347) extend pseudopods (FIGS. 16B and 16B′), and the average length of spermatozoa is 8.13±1.11 μm (±standard deviation [SD], n=95) (FIG. 16B′). […] The diameter of my15 spermatids is also slightly smaller (6.22±0.54 μm, n=136) than WT (6.73±0.65 μm, n=110, p=8.08E-07). In vivo sperm activation defects were observed also in my15 hermaphrodites. […] Thus, cil-1 positively regulates sperm activation in vitro and in vivo. […] To this end, 1 nM, 10 nM, and 100 nM wortmannin, a pharmacological inhibitor of PI 3-kinases that produce PI(3,4,5)P3 from PI(4,5)P2 [27], were applied to WT and my15 spermatids.

In another assay the test system is my15 spermatids. Kind of assay: in vitro sperm activation of isolated male spermatids, cil-1(my15) mutant. The settings on record: 100 nM. On the procedure: as §2

`CC[C@@]1([C@@H]2O[C@@H]([C@H]3O[C@@](O)(CO)[C@H](C)C[C@@H]3C)C[C@@H]2C)CC[C@H]([C@]2(C)CC[C@]3(C[C@H](O)[C@@H](C)[C@@H]([C@@H](C)[C@@H](OC)[C@H](C)C(=O)O)O3)O2)O1` [monensin] had a sperm crawl rate in the assay with WT sperm of 0.33±0.04 μm/s. Further, the sperm motility result in the assay on my15 sperm was “immotile”.
Take `COC[C@H]1OC(=O)c2coc3c2[C@@]1(C)C1=C(C3=O)[C@@H]2CCC(=O)[C@@]2(C)C[C@H]1OC(C)=O` [wortmannin]: the “most effective concentration for in vitro activation” value with WT spermatids is recorded as 100 nM. The “activation of male-derived sperm” value with my15 spermatids is reported as “not activated”.
